This is an account of results in article PMC6269819, “Evaluation of the Biological Activity of Naturally Occurring 5,8-Dihydroxycoumarin” (Molecules, 2013).

Series [1] in a line: Total phenolic compounds (TPC), Folin-Ciocalteu method. On the procedure:
The content of TPC was determined by the Folin–Ciocalteu method. Calibration curve was prepared by using 1 mL reference gallic acid solutions in ethanol (0.025, 0.075, 0.100, 0.175 and 0.350 mg/mL), which were mixed with 5 mL of a standard Folin-Ciocalteu reagent and diluted with distilled water (1:10) and 4 mL of 7.5% sodium carbonate solution in distilled water. The absorption was read after 30 min at 765 nm. The concentration of TPC was expressed in mg of gallic acid equivalents (GAE) per 1 g. The TPC was calculated by the following formula: C = c × V/m (2) where C is the concentration of gallic acid, determined form the calibration curve (mg/mL); V is the volume of 5,8-DHC solution (100 mL); m is the weight of 5,8-DHC (g).

The test system of series [2] is Drosophila melanogaster wing cells. Kind of series: Somatic mutation and recombination test (SMART), wing spot test. Format: in vivo. On the procedure:
The basic procedures for the D. melanogaster somatic mutation and recombination test (SMART) were performed according to Graf and co-workers. Two D. melanogaster strains (kindly provided by Dr. H. Frei, Zurich, Switzerland) were used in the present study: virgin females from the strain ORR/ORR; flr^3/ In (3LR) TM3, ri p^p sep l(3)89Aa bx^34e e Bd^S were mated with mwh/mwh males. The ORR strain has chromosomes 1 and 2 from a DDT-resistant Oregon line, which are characterized by constitutively over-expressed CYP450 genes. The CYP 450 enzymes play the main role in the bioactivation of xenobiotics, as well as natural products including phytochemicals. Thus, the use of this high-bioactivation strain of D. melanogaster facilitates the detection of promutagens of numerous classes of compounds. The markers mwh (multiple wing hairs) and flr^3 (misshapen, flare-like hairs) are recessive wing-hair mutations located on the third chromosome at 0.3 and 38.8 respectively.
Eggs from the crosses were collected over 10 h periods. Progeny were raised on the Instant Drosophila Medium (Sigma Chemical Co., St. Louis, MO, USA) at 25 °C. Two schedules of the larvae treatment were applied. Firstly, the crossed flies were permitted to lay eggs for 10 h in vials containing medium prepared with 5,8-DHC solution. Thus, the exposure duration was about 120 h (i.e., evolutionary period from fly egg till case-worm). According to the second schedule, the 72 ± 5 h-old larvae were exposed to 5,8-DHC by adding test solution to the surface of the medium and were fed on this medium for the rest of their development, during approximately 48 h. 5,8-DHC was dissolved in ethanol and then diluted with distilled water to the desired concentration, with the final ethanol concentration 5% v/v. The solutions were always prepared immediately before use. Solvent controls were included in all treatments. Methyl methanesulfonate was included in the assay as a positive control. Trans-heterozygous (mwh flr^+ / mwh^+ flr^3) flies were collected and stored in a 70% ethanol. The wings of adult flies were mounted on glass slides in Faure’s solution, coded and scored at 400× magnification (Nikon E200) for the presence of single (mwh or flr^3 phenotype) or twin (adjacent mwh and flr^3 clones) spots. The spots were recorded according to standard procedures. No less than 40 wings were analysed per each experimental point. Two repeated experiments were carried out.

Where [3] appears, read: test solution 0.1%, exposure duration 48 h.
Setting [4] is: test solution 0.1%, exposure duration 120 h.
The mark [5] stands for this setting: test solution 0.25%, exposure duration 48 h.
The mark [6] stands for this setting: test solution 0.25%, exposure duration 120 h.
The mark [7] stands for this setting: test solution 0.5%, exposure duration 48 h.
The mark [8] stands for this setting: test solution 0.5%, exposure duration 120 h.

Each structure is given as a SMILES string. Marks after values point to notes of the source that are not given here.

For the molecule `O=c1ccc2c(O)ccc(O)c2o1` [5,8-DHC, 5,8-Dihydroxycoumarin], in series [1], the “content of total phenols (TPC)” value is on record as 581.0 ± 0.0 mg gallic acid equivalents (GAE) in 1 g. Moreover, in series [2] (0.5% 5,8-DHC, 120 h of treatment), the large single spots came out at 0.10 spots per wing. Also, the “increase in the number of somatic mutations” value in series [2] (48 h treatment) is “no statistically significant increase”. The “genotoxicity in SMART” value in series [2] (120 h treatment) is recorded as “slight genotoxicity”. The “frequency of twin spots” value in series [2] (range over concentrations) is given as 0–0.04 spots per wing. Besides, the “Spots/wing (±S.E.M.)” value in series [2] (setting [3]) was 0.27 ± 0.04 spots/wing; in series [2] (setting [4]) it was 0.25 ± 0.04 ^a spots/wing; in series [2] (setting [5]), 0.22 ± 0.04 spots/wing; in series [2] (setting [6]), 0.30 ± 0.04 ^a spots/wing; in series [2] (setting [7]), 0.27 ± 0.04 spots/wing; in series [2] (setting [8]), 0.32 ± 0.04 ^a spots/wing. For the same molecule, the “Wings with spots (% ± S.E.M.)” value is listed as 26.8 ± 4.5% in series [2] (setting [3]); 22.4 ± 4.2% in series [2] (setting [4]); 21.1 ± 4.3% in series [2] (setting [5]); 27.1 ± 4.5^a % in series [2] (setting [6]); 25.0 ± 4.4% in series [2] (setting [7]); 28.9 ± 4.6^a % in series [2] (setting [8]).
